Like-named read-outs stand apart in the source and are kept apart here. Bounds are passed on as bounds.

Common to all, as to format: cell-based
Series [1] is described as follows: in vitro. The following applies: MTT, read-out: LC50 lethal concentration on human monocyte-derived macrophages (hMDMD). As to the method:
The cytotoxicity of the compounds was evaluated according to the ability to kill macrophages derived from human monocytes (hMDM) by the […] method, following the procedures performed by Pastrana Restrepo et al.. The hMDM were obtained from 50 mL of desfribrinated whole blood from healthy donors. These samples were mixed in a 1:1 ratio with Dulbecco PBS free of calcium and magnesium (DPBS). The mixture was centrifuged in a Ficoll Hypaque 1077 density gradient in a 1:3 ratio (blood–Ficoll) for separation of mononuclear cells, centrifuging at 2000 rpm for 20 min at 37 °C. The mononuclear cell layer was separated and these cells were washed twice with a solution of DPBS centrifuged at 13000 rpm for 10 min. After the last wash, the cells were resuspended in an RPMI medium with 10% autologous serum at a concentration of 0.3 × 10^6 cells/mL. Then, 1 mL of cells was placed in each well of 24-well culture dishes and incubated at 37 °C, 5% CO2 for 72 h to allow the differentiation of monocytes to macrophages. For the MTT test, the hMDM were adjusted to a concentration of 0.5 × 10^6 cells/mL in the RPMI medium supplemented with 10% FBS, and the concentration of the compound in the culture was adjusted (four serial dilutions starting at 200 μM). Amphotericin B and Doxorubicin were used as controls for the determination of cytotoxicity. Each experiment was performed in triplicate.
In this case, the in vitro cytotoxicity was defined by the decrease in the cell viability and growth, obtained from the OD for each experimental condition, using the following formula: (%) viability inhibition = […], where the OD of untreated cells corresponds to 100% of the viability. Growth inhibition percentage data obtained for each experimental condition were used to calculate the half lethal concentration (LC50) by the Probit analysis.
The cytotoxicity of each compound was rated according to its LC50. […]

The subject of series [2] is Leishmania braziliensis. As to the kind of experiment: In vitro experiments on Leishmania braziliensis. Conditions: mean ± SD.
The test system of series [3] is T. cruzi amastigote. As to the kind of experiment: In vitro antitrypanosomal activity, amastigotes in U937 macrophages (β-galactosidase Tulahuen strain). Conditions: Trypanosoma cruzi, U-937; infected U937 macrophages, 72 h; mean ± SD; read-out: IC50 inhibitory concentration of T. cruzi amastigote. The protocol: A human promonocitic U937 line was cultivated in RPMI-1640 medium with 10% fetal bovine serum (FBS) at a concentration of 0.25 × 10^6 cells/mL; the cells were transformed into macrophages by being incubated with phorbol 12-myristate 13-acetate (PMA) at 0.1 µg/mL. To adhere the cells, 0.1 mL of cells was added in 96-well dishes. Adherence was carried out for 72 h, and then epimastigote were added in the stationary phase of the Tulahuen strain producing β-galactosidase, at 5 parasite/cellU937 concentrations for 24 h at 37 °C with 5% CO2. To calculate the IC50 (Table 2), different concentrations of the compounds to evaluate and Benznidazole were added at an initial concentration of 20 µg/mL and 6 serial dilutions were made as a control of the effectiveness of the experiment, in addition to the control of the viability of the parasites (cells without drug treatment), from the blank of the culture medium (medium without cells), in duplicate. The cells were incubated for 72 h at 37 °C with 5% of CO2. […] The colorimetric reaction was read at 570 nm and optical densities (OD) for each experimental condition were registered. […] The half inhibitory concentration (IC50) was calculated by the Probit method using the % of inhibition for each concentration. […]

For `C[C@@H]1[C@H](O)[C@@H](C)/C=C/C=C/C=C/C=C/C=C/C=C/C=C/[C@H](O[C@@H]2O[C@H](C)[C@@H](O)[C@H](N)[C@@H]2O)C[C@@H]2O[C@](O)(C[C@@H](O)C[C@@H](O)[C@H](O)CC[C@@H](O)C[C@@H](O)CC(=O)O[C@H]1C)C[C@H](O)[C@H]2C(=O)O` [Amphotericin B], the CC50 in series [1] (mean ± SD) is 49.8 ± 6.82 µM. The IC50 in series [2] is 0.3 ± 0.07 µM.

In the case of `O=C(Cn1ccnc1[N+](=O)[O-])NCc1ccccc1` [Benznidazole], the CC50 in series [1] was above 200 µg/mL. The IC50 in series [3] stood at 16.6 ± 4 µM.

As to `COc1cccc2c1C(=O)c1c(O)c3c(c(O)c1C2=O)C[C@@](O)(C(=O)CO)C[C@@H]3O[C@H]1C[C@H](N)[C@H](O)[C@H](C)O1` [Doxorrubicin, Doxorubicin], the CC50 in series [1] (mean ± SD) worked out at 3.91 ± 0.4 µM.

Source of the values: publication PMC6321509, “Search of Allosteric Inhibitors and Associated Proteins of an AKT-like Kinase from Trypanosoma cruzi” (International Journal of Molecular Sciences, 2018).
